According to ChEMBL document CHEMBL2417479, “Effects of the methoxy group in the side chain of debromoaplysiatoxin on its tumor-promoting and anti-proliferative activities” (Bioorg Med Chem Lett, 2013):

Experiments:
Raji [1] = test: Tumor-promoting activity against human Raji cells expressing EBV-EA at 10^-6 M after 48 hrs by indirect immunofluorescence assay relative to control; assay type: ADME, cell-based; details: 1 µM
Raji [2] = test: Tumor-promoting activity against human Raji cells expressing EBV-EA at 10^-7 M after 48 hrs by indirect immunofluorescence assay relative to control; assay type: ADME, cell-based; details: 0.1 µM
Mus musculus [3] = test: In vivo tumor-promoting activity in DMBA-treated ICR mouse assessed as increase in number of papillomas at 3.4 nmol administered twice per week measured at 11 to 20 weeks by two-stage carcinogenesis assay; assay type: ADME, organism-based
[4] = Cytotoxicity against human Raji cells assessed as cell viability at 10^-8 M relative to control; assay type: cell-based; details: read-out: Activity
Mus musculus [5] = test: In vivo tumor-promoting activity in DMBA-treated ICR mouse assessed as tumor bearing mouse at 3.4 nmol administered twice per week measured after 20 weeks by two-stage carcinogenesis assay relative to control; assay type: ADME, organism-based; details: 3360 h
Mus musculus [6] = test: In vivo tumor-promoting activity in DMBA-treated ICR mouse assessed as tumor bearing mouse at 1.7 nmol administered twice per week measured after 20 weeks by two-stage carcinogenesis assay relative to control; assay type: ADME, organism-based; details: 3360 h
Mus musculus [7] = test: In vivo tumor-promoting activity in DMBA-treated ICR mouse assessed as increase in number of papillomas at 1.7 nmol administered twice per week measured at 13 to 20 weeks by two-stage carcinogenesis assay; assay type: ADME, organism-based
[8] = Cytotoxicity against human Raji cells assessed as cell viability at 10^-7 M relative to control; assay type: cell-based; details: read-out: Activity
Raji [9] = test: Tumor-promoting activity against human Raji cells expressing EBV-EA at 10^-8 M after 48 hrs by indirect immunofluorescence assay relative to control; assay type: ADME, cell-based; details: 0.01 µM
[10] = Cytotoxicity against human Raji cells assessed as cell viability at 10^-6 M relative to control; assay type: cell-based; details: read-out: Activity
OVCAR-5 = test: Growth inhibition of human OVCAR5 cells after 48 hrs by SRB assay; assay type: functional; details: OVCAR-5, 48 h
[11] = Growth inhibition of human BSY1 cells after 48 hrs by SRB assay; assay type: functional; details: BSY-1, 48 h
NCI-H522 = test: Growth inhibition of human NCI-H522 cells after 48 hrs by SRB assay; assay type: functional; details: NCI-H522, 48 h
SF-539 = test: Growth inhibition of human SF539 cells after 48 hrs by SRB assay; assay type: functional; details: SF-539, 48 h
SF-268 = test: Growth inhibition of human SF268 cells after 48 hrs by SRB assay; assay type: functional; details: SF-268, 48 h
OVCAR-3 = test: Growth inhibition of human OVCAR3 cells after 48 hrs by SRB assay; assay type: functional; details: OVCAR-3, 48 h
MDA-MB-231 = test: Growth inhibition of human MDA-MB-231 cells after 48 hrs by SRB assay; assay type: functional; details: MDA-MB-231, 48 h
[12] = Growth inhibition of human RXF631L cells after 48 hrs by SRB assay; assay type: functional; details: RXF 631, 48 h
NCI-H226 = test: Growth inhibition of human NCI-H226 cells after 48 hrs by SRB assay; assay type: functional; details: NCI-H226, 48 h
HCT-116 = test: Growth inhibition of human HCT116 cells after 48 hrs by SRB assay; assay type: functional; details: HCT-116, 48 h
LOX IMVI = test: Growth inhibition of human LOXIMVI cells after 48 hrs by SRB assay; assay type: functional
MKN-28 = test: Growth inhibition of human MKN28 cells after 48 hrs by SRB assay; assay type: functional; details: MKN-28, 48 h
St-4 = test: Growth inhibition of human St-4 cells after 48 hrs by SRB assay; assay type: functional; details: St-4, 48 h
MKN-74 = test: Growth inhibition of human MKN74 cells after 48 hrs by SRB assay; assay type: functional; details: MKN-74, 48 h
OVCAR-8 = test: Growth inhibition of human OVCAR8 cells after 48 hrs by SRB assay; assay type: functional; details: OVCAR-8, 48 h
U-251 = test: Growth inhibition of human U251 cells after 48 hrs by SRB assay; assay type: functional; details: U-251, 48 h
DMS-114 = test: Growth inhibition of human DMS114 cells after 48 hrs by SRB assay; assay type: functional; details: DMS-114, 48 h
[13] = Growth inhibition of human HCC2998 cells after 48 hrs by SRB assay; assay type: functional; details: HCC 2998, 48 h
SF-295 = test: Growth inhibition of human SF295 cells after 48 hrs by SRB assay; assay type: functional; details: SF-295, 48 h
DU-145 = test: Growth inhibition of human DU145 cells after 48 hrs by SRB assay; assay type: functional; details: DU-145, 48 h
MKN-45 = test: Growth inhibition of human MKN45 cells after 48 hrs by SRB assay; assay type: functional; details: MKN-45, 48 h
SNB-78 = test: Growth inhibition of human SNB-78 cells after 48 hrs by SRB assay; assay type: functional; details: SNB-78, 48 h
[14] = Growth inhibition of human MKN1 cells after 48 hrs by SRB assay; assay type: functional; details: MKN-1, 48 h
[15] = Growth inhibition of human HBC5 cells after 48 hrs by SRB assay; assay type: functional; details: HBC5, 48 h
A549 = test: Growth inhibition of human A549 cells after 48 hrs by SRB assay; assay type: functional; details: A549, 48 h
OVCAR-4 = test: Growth inhibition of human OVCAR4 cells after 48 hrs by SRB assay; assay type: functional; details: OVCAR-4, 48 h
MKN-7 = test: Growth inhibition of human MKN7 cells after 48 hrs by SRB assay; assay type: functional; details: MKN-7, 48 h
NCI-H23 = test: Growth inhibition of human NCI-H23 cells after 48 hrs by SRB assay; assay type: functional; details: NCI-H23, 48 h
MCF7 = test: Growth inhibition of human MCF7 cells after 48 hrs by SRB assay; assay type: functional; details: MCF7, 48 h
SK-OV-3 = test: Growth inhibition of human SKOV3 cells after 48 hrs by SRB assay; assay type: functional; details: SK-OV-3, 48 h
NCI-H460 = test: Growth inhibition of human NCI-H460 cells after 48 hrs by SRB assay; assay type: functional; details: NCI-H460, 48 h
KM12 = test: Growth inhibition of human KM12 cells after 48 hrs by SRB assay; assay type: functional; details: KM12, 48 h
PC-3 = test: Growth inhibition of human PC3 cells after 48 hrs by SRB assay; assay type: functional; details: PC-3, 48 h
SNB-75 = test: Growth inhibition of human SNB75 cells after 48 hrs by SRB assay; assay type: functional; details: SNB-75, 48 h
HT-29 = test: Growth inhibition of human HT-29 cells after 48 hrs by SRB assay; assay type: functional; details: HT-29, 48 h
HCT-15 = test: Growth inhibition of human HCT15 cells after 48 hrs by SRB assay; assay type: functional; details: HCT-15, 48 h
DMS-273 = test: Growth inhibition of human DMS273 cells after 48 hrs by SRB assay; assay type: functional; details: DMS-273, 48 h
[16] = Growth inhibition of human HBC4 cells after 48 hrs by SRB assay; assay type: functional; details: HBC4, 48 h
ACHN = test: Growth inhibition of human ACHN cells after 48 hrs by SRB assay; assay type: functional

CO[C@@H](CC[C@H](C)[C@H]1O[C@@]23C[C@H](OC(=O)C[C@H]([C@@H](C)O)OC(=O)C[C@](O)(O2)[C@H](C)CC3(C)C)[C@@H]1C)c1cccc(O)c1 [DEBROMOAPLYSIATOXIN]
Activity (Raji [1]): 24.4%
Activity (Raji [2]): 22.9%
Activity (Mus musculus [3]): Toxic
viability at 0.01 µM [4]: 60%
Activity (Mus musculus [5]): 90%
Activity (Mus musculus [6]): 80%
Activity (Mus musculus [7]): Toxic
viability at 0.1 µM [8]: 50%
Activity (Raji [9]): 21.1%
viability at 1 µM [10]: 50%

CC1=C2CC(=O)O[C@@H]([C@@H](C)O)CC(=O)O[C@H]3C[C@@](O2)(O[C@H]([C@@H](C)CCCc2cccc(O)c2)[C@H]3C)C(C)(C)C1
GI50 (OVCAR-5): 4.17 µM
GI50 [11]: 4.07 µM
GI50 (NCI-H522): 5.5 µM
GI50 (SF-539): 11.2 µM
Activity (Raji [1]): 16.2%
GI50 (SF-268): 10.2 µM
Activity (Raji [2]): 14.1%
GI50 (OVCAR-3): 8.51 µM
GI50 (MDA-MB-231): 1.07 µM
GI50 [12]: 11 µM
GI50 (NCI-H226): 10.7 µM
GI50 (HCT-116): 5.62 µM
GI50 (LOX IMVI): 0.832 µM
GI50 (MKN-28): 4.68 µM
GI50 (St-4): 0.741 µM
GI50 (MKN-74): 6.17 µM
GI50 (OVCAR-8): 12.6 µM
GI50 (U-251): 4.57 µM
GI50 (DMS-114): 4.47 µM
GI50 [13]: 1.86 µM
viability at 0.01 µM [4]: 60%
GI50 (SF-295): 3.24 µM
GI50 (DU-145): 7.94 µM
Activity (Mus musculus [5]): Not Active
GI50 (MKN-45): 1.82 µM
GI50 (SNB-78): 15.5 µM
GI50 [14]: 8.13 µM
GI50 [15]: 11.7 µM
GI50 (A549): 2.09 µM
GI50 (OVCAR-4): 6.61 µM
GI50 (MKN-7): 4.07 µM
GI50 (NCI-H23): 7.94 µM
GI50 (MCF7): 4.37 µM
viability at 0.1 µM [8]: 60%
GI50 (SK-OV-3): 15.5 µM
GI50 (NCI-H460): 0.871 µM
GI50 (KM12): 4.17 µM
GI50 (PC-3): 3.72 µM
Activity (Raji [9]): 11%
GI50 (SNB-75): 9.77 µM
GI50 (HT-29): 4.47 µM
viability at 1 µM [10]: 60%
GI50 (HCT-15): 6.76 µM
GI50 (DMS-273): 4.37 µM
GI50 [16]: 0.55 µM
GI50 (ACHN): 5.5 µM
